In article PMC8471380 (Molecules, 2021):
Structures can show the parent of a compound that is named as a salt.

What was measured:
[1] = molecular target: T1, porcine liver CES (Sus scrofa, UniProt Q29550); experiment: CES inhibition, 4-nitrophenyl acetate hydrolysis; type: biochemical; settings: for inhibition at 20 µM: read-out: % of inhibition of CES with 20 µM concentration of the compound
T1 sequence (Q29550 19-566): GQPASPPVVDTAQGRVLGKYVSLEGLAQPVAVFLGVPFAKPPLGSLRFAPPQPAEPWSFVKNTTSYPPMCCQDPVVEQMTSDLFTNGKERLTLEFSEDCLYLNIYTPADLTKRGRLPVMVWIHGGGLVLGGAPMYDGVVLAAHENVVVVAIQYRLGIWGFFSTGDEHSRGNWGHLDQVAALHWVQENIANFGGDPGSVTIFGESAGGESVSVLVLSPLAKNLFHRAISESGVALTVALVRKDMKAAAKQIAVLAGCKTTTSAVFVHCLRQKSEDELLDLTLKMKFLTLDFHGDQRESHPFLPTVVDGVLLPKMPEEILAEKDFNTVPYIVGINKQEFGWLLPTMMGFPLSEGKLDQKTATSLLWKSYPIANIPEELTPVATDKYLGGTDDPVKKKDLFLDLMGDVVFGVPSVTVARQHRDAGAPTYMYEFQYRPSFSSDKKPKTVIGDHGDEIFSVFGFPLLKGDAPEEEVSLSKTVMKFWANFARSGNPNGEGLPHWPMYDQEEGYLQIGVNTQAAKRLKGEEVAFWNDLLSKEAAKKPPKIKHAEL
Method: (§1) Reagents blanks consisted of reaction mixtures without substrates. […] Final enzyme and substrate concentrations were 0.02 unit/mL and 1 mM, respectively. Assays were carried out with a blank containing all constituents except porcine CES to assess non-enzymatic hydrolysis. The measurements were performed on a FLUOstar OPTIMA multifunctional microplate reader (BMG LABTECH, Ortenberg, Germany). The compounds were dissolved in DMSO. The incubation mixture contained 2% (v/v) of the solvent. […] The sample of the appropriate enzyme was incubated with the test compound for 5 min, and then the residual enzymatic activity was determined. Each experiment was performed in triplicate. […] Each experiment was performed in triplicate. The IC50 values were calculated with Origin 6.1 software.

[2] = molecular target: T2, human erythrocyte AChE (Homo sapiens, UniProt P22303); experiment: biochemical; settings: mean ± SEM, n = 3; for inhibition at 20 µM: read-out: % of inhibition of AChE with 20 µM concentration of the compound, 20 µM compound; for IC50: 5 min incubation
T2 construct: commercial human erythrocyte AChE; purchased Sigma; host or cells: human erythrocytes
T2 sequence (P22303 32-617 isoform P22303-2 limits assumed): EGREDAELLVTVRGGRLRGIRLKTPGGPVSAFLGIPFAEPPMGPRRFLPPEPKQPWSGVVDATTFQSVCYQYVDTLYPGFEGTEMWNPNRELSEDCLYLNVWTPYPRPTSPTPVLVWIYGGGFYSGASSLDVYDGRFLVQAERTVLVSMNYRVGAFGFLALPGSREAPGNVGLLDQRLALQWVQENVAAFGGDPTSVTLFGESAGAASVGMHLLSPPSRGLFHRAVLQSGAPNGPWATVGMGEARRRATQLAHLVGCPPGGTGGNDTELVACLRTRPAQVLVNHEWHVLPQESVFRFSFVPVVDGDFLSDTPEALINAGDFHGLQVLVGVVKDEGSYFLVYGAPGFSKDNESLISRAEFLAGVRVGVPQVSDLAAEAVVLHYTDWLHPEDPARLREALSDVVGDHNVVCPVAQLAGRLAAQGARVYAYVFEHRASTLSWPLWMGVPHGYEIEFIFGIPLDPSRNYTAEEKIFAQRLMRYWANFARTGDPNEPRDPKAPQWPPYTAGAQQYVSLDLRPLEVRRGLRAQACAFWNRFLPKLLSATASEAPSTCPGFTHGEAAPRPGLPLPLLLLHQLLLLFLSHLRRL

[3] = molecular target: T3, PAS of EeAChE (Electrophorus electricus, UniProt O42275); type: binding; settings: 20 µM compound; 7 µM EeAChE, 8 µM propidium iodide; mean ± SEM, n = 3
T3 construct: AChE from Electrophorus electricus (EeAChE, type VI-S, lyophilized powder); purchased Sigma-Aldrich type VI-S; host or cells: Electrophorus electricus tissue
T3 sequence (O42275 24-633): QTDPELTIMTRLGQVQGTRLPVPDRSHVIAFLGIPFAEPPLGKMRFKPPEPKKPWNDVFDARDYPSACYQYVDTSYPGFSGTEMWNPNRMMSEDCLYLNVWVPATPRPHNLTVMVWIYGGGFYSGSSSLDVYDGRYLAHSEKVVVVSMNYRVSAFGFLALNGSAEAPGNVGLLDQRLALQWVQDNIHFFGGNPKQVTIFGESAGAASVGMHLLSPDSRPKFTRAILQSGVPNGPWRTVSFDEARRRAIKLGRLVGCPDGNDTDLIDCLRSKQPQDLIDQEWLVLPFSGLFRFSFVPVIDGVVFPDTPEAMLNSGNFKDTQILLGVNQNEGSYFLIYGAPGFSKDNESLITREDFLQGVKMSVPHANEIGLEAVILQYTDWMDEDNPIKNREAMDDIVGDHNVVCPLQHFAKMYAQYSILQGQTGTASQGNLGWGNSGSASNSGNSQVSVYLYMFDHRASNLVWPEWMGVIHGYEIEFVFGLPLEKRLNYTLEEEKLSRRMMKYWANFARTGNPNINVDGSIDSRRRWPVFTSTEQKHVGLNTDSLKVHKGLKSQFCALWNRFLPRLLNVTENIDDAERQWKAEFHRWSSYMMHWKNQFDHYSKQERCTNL
Method: The compounds were evaluated as potential inhibitors of proaggregation activity of AChE by measuring the displacement of propidium iodide from the PAS of the enzyme [53] using a fluorescence method [28]. AChE from Electrophorus electricus (EeAChE, type VI-S, lyophilized powder, Sigma-Aldrich, St. Louis, MO, USA) was used for consistency with our previous studies [8, 13, 63, 74]. The fluorescence intensity of propidium iodide bound to AChE increases several-fold. A decrease in the fluorescence intensity in the presence of the test compounds is indicative of their ability to bind to the AChE PAS and, correspondingly, to inhibit β-amyloid aggregation.
EeAChE (7 µM) was incubated with 20 µM of the test compound in 1 mM Tris-HCl buffer, pH 8.0, at 25 °C for 15 min. Then a solution of propidium iodide was added (final concentration 8 µM), the mixture was incubated for 15 min, and the fluorescence spectrum was recorded (excitation at 530 nm and emission at 600 nm). […] The blank contained propidium iodide at the same concentration in 1 mM Tris-HCl buffer, pH 8.0 at 25 °C. The measurements were performed in triplicate on a FLUOstar OPTIMA multifunctional microplate reader.
The degree of displacement of propidium iodide from the PAS of AChE (% displacement) was calculated by the equation:% displacement = 100 − (IFAChE + Propidium + inhibitor/IFAChE + Propidium) × 100, where IFAChE + Propidium is the fluorescence intensity of propidium iodide bound to EeAChE in the absence of the test compound (taken as 100%), and IFAChE + Propidium + inhibitor is the fluorescence intensity of propidium iodide bound to EeAChE in the presence of the test compound.

[4] = system: isolated rat liver mitochondria; experiment: Ca2+-induced mitochondrial swelling (MPT pore opening); type: biochemical; settings: 30 µM compound; 12.5 µM Ca2+; 10 mM glutamate, 2 mM malate, 10 mM succinate; percentage relative to the reference compound
Method: Experiments were performed using outbred male rats weighing 200–220 g. The animals were housed under standard vivarium conditions in a normal day/night cycle and had ad libitum access to water and food. The procedure of rat euthanasia using carbon dioxide (CO2) inhalation for mitochondria preparation is in compliance with the Guidelines for Animal Experiments, which were approved by the local bioethics committee of the IPAC RAS.
Rat liver mitochondria were isolated by conventional differential centrifugation. Membrane potential of rat liver mitochondria was measured using the potential-sensitive fluorescent probe Safranine A on a Victor 3 multilabel plate reader (Perkin Elmer, Waltham, MA, USA). The fluorescence was recorded at λex = 485 nm and λem = 590 nm. Mitochondrial swelling was measured by spectrophotometry in 96-well clear bottom plates on a Victor 3 microplate reader (Perkin Elmer, Waltham, MA, USA) at 620 nm; CaCl2 was added to induce mitochondrial swelling (MPT opening).

[5] = molecular target: T4, ifenprodil-binding site of NMDA receptor (NR2B subunit) (Rattus norvegicus, UniProt P35439+Q00960); experiment: Radioligand binding assay, [3H]ifenprodil displacement
T4 construct: from tissue; host or cells: rat hippocampus membranes
T4 sequence (Q00960 27-1482, other chains not shown): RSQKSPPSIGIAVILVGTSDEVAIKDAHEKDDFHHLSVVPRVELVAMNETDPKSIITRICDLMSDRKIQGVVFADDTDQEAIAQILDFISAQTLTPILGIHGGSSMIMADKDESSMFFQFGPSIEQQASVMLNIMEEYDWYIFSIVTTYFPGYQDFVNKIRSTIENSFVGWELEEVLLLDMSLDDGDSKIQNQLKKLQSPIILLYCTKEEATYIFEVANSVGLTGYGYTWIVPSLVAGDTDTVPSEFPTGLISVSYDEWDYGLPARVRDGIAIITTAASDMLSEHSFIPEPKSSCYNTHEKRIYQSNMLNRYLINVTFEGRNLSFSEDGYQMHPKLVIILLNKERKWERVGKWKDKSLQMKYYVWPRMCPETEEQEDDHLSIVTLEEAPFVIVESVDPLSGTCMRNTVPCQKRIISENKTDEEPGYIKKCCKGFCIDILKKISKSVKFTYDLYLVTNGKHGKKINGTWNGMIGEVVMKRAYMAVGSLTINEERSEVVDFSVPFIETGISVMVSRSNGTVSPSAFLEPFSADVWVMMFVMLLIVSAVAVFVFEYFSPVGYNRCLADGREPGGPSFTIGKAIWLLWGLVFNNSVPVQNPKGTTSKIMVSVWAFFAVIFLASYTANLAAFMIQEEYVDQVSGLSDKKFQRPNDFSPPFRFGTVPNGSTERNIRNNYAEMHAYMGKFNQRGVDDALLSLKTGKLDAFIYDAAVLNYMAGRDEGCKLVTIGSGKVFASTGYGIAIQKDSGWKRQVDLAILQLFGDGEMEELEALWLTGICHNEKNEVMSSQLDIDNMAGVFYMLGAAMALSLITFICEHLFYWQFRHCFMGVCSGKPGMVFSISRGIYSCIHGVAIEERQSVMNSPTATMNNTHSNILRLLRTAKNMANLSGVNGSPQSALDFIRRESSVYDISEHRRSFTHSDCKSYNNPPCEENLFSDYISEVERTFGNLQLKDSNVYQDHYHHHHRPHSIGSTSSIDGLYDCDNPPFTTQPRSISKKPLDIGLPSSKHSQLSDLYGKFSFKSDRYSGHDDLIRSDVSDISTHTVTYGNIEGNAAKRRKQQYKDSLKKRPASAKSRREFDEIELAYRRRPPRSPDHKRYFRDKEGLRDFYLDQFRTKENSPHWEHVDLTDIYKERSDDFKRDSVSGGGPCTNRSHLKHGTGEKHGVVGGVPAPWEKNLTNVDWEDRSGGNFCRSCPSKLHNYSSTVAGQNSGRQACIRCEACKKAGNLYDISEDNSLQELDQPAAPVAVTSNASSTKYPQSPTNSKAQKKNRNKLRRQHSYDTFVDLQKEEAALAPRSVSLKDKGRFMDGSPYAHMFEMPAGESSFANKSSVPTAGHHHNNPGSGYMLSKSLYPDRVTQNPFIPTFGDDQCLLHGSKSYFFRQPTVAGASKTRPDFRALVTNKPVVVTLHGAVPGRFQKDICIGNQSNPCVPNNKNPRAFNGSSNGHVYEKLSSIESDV
Method: (§2) The effect of the test compounds on radioligand binding to NMDA receptors was evaluated by a modified method, as previously reported [83]. The following two radioligands were used: [^3H] […] A hippocampal membrane preparation for the radioligand binding assay was made as described previously [86, 87]. The obtained membrane pellet was resuspended in a working buffer (5 mM HEPES/4.5 mM Tris, pH 7.6 at 4 °C) in a ratio of 1:5 and stored in liquid nitrogen. The reaction mixture (the final volume was 0.5 mL) contained the working buffer (200 μL), a 50 nM radioligand solution (50 μL) and the membrane suspension (250 μL). The nonspecific binding was evaluated in the presence of 1 mM of the unlabeled ligand (50 μL).
(§3) For the binding assay, the reaction mixture was incubated at room temperature for 2 h. After the incubation, the samples were filtered through GF/B glass fiber filters (Whatman), washed with the working buffer, dried and transferred to scintillation vials. Then the scintillation fluid (5 mL), which is composed of diphenyloxazole (PPO) (4 g) and bis(5-phenyl-2-oxazolyl)benzene (POPOP) (0.2 g) in toluene (1 L) were added to the vials.
(§4) The effect of the test compounds on the binding of [^3H] […] The values of Ki were calculated according to a previously described method [88].

[6] = molecular target: T5, MK-801-binding (intrachannel) site of NMDA receptor (Rattus norvegicus, UniProt P35439); experiment: Radioligand binding assay, [3H]MK-801 displacement
T5 construct: from tissue; host or cells: rat hippocampus membranes
Method: as §2, §3, §4

[7] = molecular target: T6, equine serum BChE (Equus caballus, UniProt P81908); experiment: biochemical; settings: mean ± SEM, n = 3; for IC50: 5 min incubation
T6 construct: equine serum BChE; purchased Sigma; host or cells: equine serum
T6 sequence (P81908 whole entry): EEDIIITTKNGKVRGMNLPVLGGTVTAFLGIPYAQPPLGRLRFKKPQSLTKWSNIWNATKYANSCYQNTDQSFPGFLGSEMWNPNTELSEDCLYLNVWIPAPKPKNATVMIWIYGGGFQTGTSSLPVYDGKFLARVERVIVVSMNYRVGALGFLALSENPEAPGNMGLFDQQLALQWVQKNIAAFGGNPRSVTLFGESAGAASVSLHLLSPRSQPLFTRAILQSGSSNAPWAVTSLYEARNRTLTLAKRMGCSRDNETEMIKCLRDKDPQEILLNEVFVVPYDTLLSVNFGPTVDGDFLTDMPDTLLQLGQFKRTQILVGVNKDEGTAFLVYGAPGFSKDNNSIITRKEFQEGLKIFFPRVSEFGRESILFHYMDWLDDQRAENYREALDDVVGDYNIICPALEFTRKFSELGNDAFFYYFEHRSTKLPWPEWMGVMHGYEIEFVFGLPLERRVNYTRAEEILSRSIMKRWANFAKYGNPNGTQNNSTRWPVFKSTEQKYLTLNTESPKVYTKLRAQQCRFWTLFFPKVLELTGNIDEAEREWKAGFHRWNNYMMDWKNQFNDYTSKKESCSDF
Method: as §1

[8] = system: tubulin and microtubule-associated proteins (Tb+MAP); experiment: GTP-dependent Tb+MAP polymerization; type: biochemical, mouse; settings: 100 µM compound; for Rate of Tb+MAP Polymerization (dA355/dt): 0.1 mM GTP, 37 °C
Description: A crude fraction of tubulin and microtubule-associated proteins (Tb+MAP) was isolated from mouse brain tissue by a polymerization–depolymerization method. The procedure of mouse euthanasia using cervical dislocation for Tb+MAP preparation is in compliance with the Guidelines for Animal Experiments, which were approved by the local bioethics committee of the IPAC RAS. The freshly dissected brain was immediately placed on ice, cleared of meninges and surface blood vessels, and washed with cold buffer A (50 mM Tris-HCl, pH 6.9 at 4 °C, 2 mM EGTA). The extracted brain tissue was homogenized under ice cooling in the same buffer using a Potter S homogenizer (Sartorius). The resulting homogenate was centrifuged at 10,000× g for 30 min on an Avanti 25 centrifuge (Beckman) using a JA-14 rotor for the precipitation of non-ruptured cells. The precipitate was discarded, and the supernatant was again centrifuged at 100,000× g for 60 min at 4 °C on an Optima MAX XP centrifuge (Beckman) using a MLA-50 rotor. The precipitate was again discarded. The protein concentration in the supernatant was determined by the Bradford assay using the Bio-Rad Protein Assay kit (Bio-Rad, Hercules, CA, USA) according to manufacturer’s instructions. The resulting supernatant was a cytosolic fraction enriched in microtubular proteins (Tb and MAP).
The Tb+MAP preparation was centrifuged at 5000× g for 10 min at 4 °C immediately before polymerization in order to remove denatured and aggregated protein molecules by precipitation. The Tb+MAP polymerization was performed at 37 °C in buffer A in the presence of 0.1 mM GTP after addition of 100 µM of test compound or the same volume of vehicle (DMSO). The protein concentration in the sample was 0.2 mg/mL. The polymerization kinetics was monitored on a Victor 3 or EnVision microplate reader (Perkin Elmer, USA) at 355 nm and the stabilized rate of polymerization after the first wave was measured (dA355/dt).

Row | Compound | inhibition at 20 µM [1] [%] | inhibition at 20 µM [2] [%] | % of Displacement of Propidium Iodide from the PAS of EeAChE [3] [%] | Rate of Ca2+-Induced Mitochondrial Swelling (dA620/dt) [4] [%] | Ki [5] [µM] | Ki [6] [µM] | IC50 [7] [µM] | Rate of Tb+MAP Polymerization (dA355/dt) [8] [%] | inhibition at 20 µM ([7]; read-out: % of inhibition of BChE with 20 µM concentration of the compound, 20 µM compound) [%] | IC50 [2] [µM] | Increase of the rate of Tb+MAP polymerization, factor [8] | IC50 ([1]; 5 min incubation, mean ± SEM, n = 3) [µM]
1 | CN1CCc2c(c3ccccc3n2CC(=O)NC23CC4CC(CC(C4)C2)C3)C1.Cl [Compound 8d, N-(Adamantan-1-yl)-2-(2-methyl-3,4-dihydro-1H-pyrido[4,3-b]indol-5(2H)-yl)acetamide hydrochloride] | 8.8 ± 1.2 | 5.4 ± 1 | 1.4 ± 0.2 | 45 ± 17 | 79.1 ± 7.1 | 49.5 ± 4.5 | 26.5 ± 0.4 | 128 ± 15 |  |  |  | 
2 | CN1CCc2c(c3cc(F)ccc3n2CC(=O)NC23CC4CC(CC(C4)C2)C3)C1.Cl [Compound 8f, N-(Adamantan-1-yl)-2-(8-fluoro-2-methyl-3,4-dihydro-1H-pyrido[4,3-b]indol-5(2H)-yl)acetamide hydrochloride] | 6.2 ± 0.6 | 22.1 ± 1.8 |  | 61 ± 24 | 73.8 ± 7 | 47.3 ± 4.7 | 17.1 ± 1.3 | 154 ± 14 |  |  |  | 
3 | CC12CC3CC(C)(C1)CC(N)(C3)C2 [memantine, reference compound] | 3 ± 0.4 | 1.3 ± 0.2 |  | 70 ± 9 |  |  |  | 89 ± 7 | 13.7 ± 1.5 |  |  | 
4 | Cc1ccc2c(c1)c1c(n2CC(=O)NC23CC4CC(C)(CC(C)(C4)C2)C3)CCN(C)C1.Cl [Compound 8b, 2-(2,8-Dimethyl-3,4-dihydro-1H-pyrido[4,3-b]indol-5(2H)-yl)-N-(3,5-dimethyladamantan-1-yl)acetamide hydrochloride] | 6.4 ± 0.5 | 17.7 ± 1.4 | 2.8 ± 0.2 | 87 ± 33 | 89.7 ± 8.7 | 55.1 ± 5.1 | 33.7 ± 3.5 | 314 ± 46 |  |  |  | 
5 | CN1CCc2c(c3ccccc3n2CCNC23CC4CC(C)(CC(C)(C4)C2)C3)C1.Cl.Cl [Compound 4a, 3,5-Dimethyl-N-(2-(2-methyl-3,4-dihydro-1H-pyrido[4,3-b]indol-5(2H)-yl)ethyl)-adamantane-1-amine dihydrochloride] | 15.6 ± 0.3 | 19.5 ± 0.3 | 12.5 ± 1.1 | 33 ± 4 | 1.7 ± 0.2 | 1.9 ± 0.2 | 0.666 ± 0.037 | 126 ± 9 |  |  |  | 
6 | Cc1ccc2c(c1)c1c(n2CCNC23CC4CC(CC(C4)C2)C3)CCN(C)C1.Cl.Cl [Compound 4e, N-(2-(2,8-Dimethyl-3,4-dihydro-1H-pyrido[4,3-b]indol-5(2H)-yl)ethyl)adamantane-1-amine dihydrochloride] | 2.5 ± 0.5 |  | 15.1 ± 1.2 | 42 ± 9 | 8.2 ± 0.9 | 10.3 ± 1.6 | 9.05 ± 0.8 | 239 ± 21 |  | 63.3 ± 3.3 |  | 
7 | CN1CCc2c(c3cc(F)ccc3n2CCNC23CC4CC(CC(C4)C2)C3)C1.Cl.Cl [Compound 4f, N-(2-(8-Fluoro-2-methyl-3,4-dihydro-1H-pyrido[4,3-b]indol-5(2H)-yl)ethyl)adamantane-1-amine dihydrochloride] | 8.6 ± 1.7 |  | 17.8 ± 1.5 | 42 ± 8 | 5.1 ± 0.5 | 5.4 ± 0.6 | 2.53 ± 0.1 | 356 ± 14 |  | 13.6 ± 1.3 | > 3.5 | 
8 | Cc1ccc2c(c1)c1c(n2CCc2ccc(C)nc2)CCN(C)C1 [dimebon, reference compound] |  |  | 4.1 ± 0.3 | 36 ± 11 | 77.2 ± 5.7 | 50.4 ± 4.3 |  | 162 ± 23 |  |  |  | 
9 | CN1CCc2c(c3cc(F)ccc3n2CC(=O)NC23CC4CC(C)(CC(C)(C4)C2)C3)C1.Cl [Compound 8c, N-(3,5-Dimethyladamantan-1-yl)-2-(8-fluoro-2-methyl-3,4-dihydro-1H-pyrido[4,3-b]indol-5(2H)-yl)acetamide hydrochloride] | 8.4 ± 0.9 | 17.3 ± 0.8 |  | 63 ± 25 | 110 ± 10.8 | 80.6 ± 8.5 | 6 ± 0.06 | 359 ± 25 |  |  | > 3.5 | 
10 | CN1CCc2c(c3ccccc3n2CC(=O)NC23CC4CC(C)(CC(C)(C4)C2)C3)C1 [Compound 8a, 3,5-Dimethyladamantan-1-yl)-2-(2-methyl-3,4-dihydro-1H-pyrido[4,3-b]indol-5(2H)-yl)acetamide hydrochloride] | 5.2 ± 1.2 | 7.1 ± 0.5 |  | 42 ± 21 | 113 ± 10.4 | 63.5 ± 5.8 | 9.66 ± 0.52 | 237 ± 55 |  |  |  | 
11 | O=[N+]([O-])c1ccc(OP(=O)(O)Oc2ccc([N+](=O)[O-])cc2)cc1 [BNPP, bis-4-nitrophenyl phosphate, reference compound] |  |  |  |  |  |  |  |  |  |  |  | 1.8 ± 0.11
